We go through eight compounds from US9340590B2 (priority 2011, dated 2016).

Holding throughout (assay): cell-based
The target in experiment [1] is hNav1.7 (Homo sapiens, UniProt Q15858). It is filed as cell-based. To be noted: IonWorks Quattro, use-dependent protocol, hNav1.7; read-out: IWQ Use Nav1.7. In general terms: Patch clamp records ionic current or voltage across a cell membrane.
The target in experiment [2] is hNav1.5 (Homo sapiens, UniProt Q14524).
For experiment [3], the target named is hNav1.3 (Homo sapiens, UniProt Q9NY46). To be noted: IonWorks Quattro, use-dependent protocol, hNav1.3; read-out: IWQ Use Nav1.3.
[4] abbreviates: IonWorks Quattro, use-dependent protocol, hNav1.5, read-out: IWQ Use Nav1.5.

Where two headings read alike, the source gives them in different places. Positions of bridges follow the written chain, without caps; N, C: chain ends. Non-standard residues stand in square brackets, D forms with d. Residues, ends and D or L forms follow the SMILES beside them. Trp(1-Me) = Cn1cc(C[C@H](N)C(=O)O)c2ccccc21 Some results are limits rather than exact numbers.

Sequence of hNav1.7 (Q15858 whole entry, looked up): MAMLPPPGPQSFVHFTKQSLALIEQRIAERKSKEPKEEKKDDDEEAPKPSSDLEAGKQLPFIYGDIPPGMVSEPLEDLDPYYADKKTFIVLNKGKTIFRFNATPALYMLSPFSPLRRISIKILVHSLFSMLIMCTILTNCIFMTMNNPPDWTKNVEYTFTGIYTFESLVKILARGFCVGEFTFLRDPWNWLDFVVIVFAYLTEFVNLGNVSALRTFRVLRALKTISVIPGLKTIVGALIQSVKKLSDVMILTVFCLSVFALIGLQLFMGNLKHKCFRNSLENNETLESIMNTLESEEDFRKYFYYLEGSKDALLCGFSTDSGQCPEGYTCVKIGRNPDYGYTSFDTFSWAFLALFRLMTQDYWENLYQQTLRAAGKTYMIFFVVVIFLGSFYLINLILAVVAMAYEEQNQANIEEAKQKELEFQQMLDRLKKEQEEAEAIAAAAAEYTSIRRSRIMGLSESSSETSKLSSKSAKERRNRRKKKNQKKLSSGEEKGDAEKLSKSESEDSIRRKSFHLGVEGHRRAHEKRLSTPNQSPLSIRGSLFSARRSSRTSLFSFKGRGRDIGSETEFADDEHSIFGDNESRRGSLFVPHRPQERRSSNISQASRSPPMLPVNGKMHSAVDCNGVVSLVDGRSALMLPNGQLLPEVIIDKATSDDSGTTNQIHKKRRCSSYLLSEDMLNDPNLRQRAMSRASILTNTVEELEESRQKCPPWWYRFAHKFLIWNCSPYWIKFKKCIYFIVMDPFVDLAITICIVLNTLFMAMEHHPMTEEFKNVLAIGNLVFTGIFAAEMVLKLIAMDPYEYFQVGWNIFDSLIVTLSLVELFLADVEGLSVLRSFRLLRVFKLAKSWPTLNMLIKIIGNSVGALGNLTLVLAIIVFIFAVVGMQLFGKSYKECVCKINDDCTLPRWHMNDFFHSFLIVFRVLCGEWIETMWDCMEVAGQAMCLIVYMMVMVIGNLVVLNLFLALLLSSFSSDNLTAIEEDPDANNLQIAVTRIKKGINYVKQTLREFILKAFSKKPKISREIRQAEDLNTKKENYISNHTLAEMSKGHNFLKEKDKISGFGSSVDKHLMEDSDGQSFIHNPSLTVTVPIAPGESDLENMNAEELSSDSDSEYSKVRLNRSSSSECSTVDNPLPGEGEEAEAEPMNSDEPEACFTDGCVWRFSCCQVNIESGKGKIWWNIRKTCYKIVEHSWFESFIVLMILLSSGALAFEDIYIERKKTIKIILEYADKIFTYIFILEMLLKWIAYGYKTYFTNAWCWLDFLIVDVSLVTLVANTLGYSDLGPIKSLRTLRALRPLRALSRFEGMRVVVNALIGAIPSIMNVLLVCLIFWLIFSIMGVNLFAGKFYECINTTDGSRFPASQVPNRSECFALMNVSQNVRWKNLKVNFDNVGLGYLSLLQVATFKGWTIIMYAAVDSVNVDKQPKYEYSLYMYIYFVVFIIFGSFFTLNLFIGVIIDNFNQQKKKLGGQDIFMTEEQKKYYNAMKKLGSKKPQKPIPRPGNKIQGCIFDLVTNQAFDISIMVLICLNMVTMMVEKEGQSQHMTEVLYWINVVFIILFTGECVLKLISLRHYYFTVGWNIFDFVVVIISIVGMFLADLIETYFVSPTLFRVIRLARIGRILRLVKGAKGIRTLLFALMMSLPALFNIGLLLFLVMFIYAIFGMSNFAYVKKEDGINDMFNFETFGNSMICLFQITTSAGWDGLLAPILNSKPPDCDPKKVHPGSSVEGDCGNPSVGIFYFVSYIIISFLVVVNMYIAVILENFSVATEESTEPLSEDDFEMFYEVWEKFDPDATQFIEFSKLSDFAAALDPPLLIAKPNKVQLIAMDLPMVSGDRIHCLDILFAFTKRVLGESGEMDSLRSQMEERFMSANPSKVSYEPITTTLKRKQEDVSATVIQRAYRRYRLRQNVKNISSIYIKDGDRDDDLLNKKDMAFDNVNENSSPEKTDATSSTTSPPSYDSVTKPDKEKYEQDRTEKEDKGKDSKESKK
Sequence of hNav1.5 (Q14524 whole entry, looked up): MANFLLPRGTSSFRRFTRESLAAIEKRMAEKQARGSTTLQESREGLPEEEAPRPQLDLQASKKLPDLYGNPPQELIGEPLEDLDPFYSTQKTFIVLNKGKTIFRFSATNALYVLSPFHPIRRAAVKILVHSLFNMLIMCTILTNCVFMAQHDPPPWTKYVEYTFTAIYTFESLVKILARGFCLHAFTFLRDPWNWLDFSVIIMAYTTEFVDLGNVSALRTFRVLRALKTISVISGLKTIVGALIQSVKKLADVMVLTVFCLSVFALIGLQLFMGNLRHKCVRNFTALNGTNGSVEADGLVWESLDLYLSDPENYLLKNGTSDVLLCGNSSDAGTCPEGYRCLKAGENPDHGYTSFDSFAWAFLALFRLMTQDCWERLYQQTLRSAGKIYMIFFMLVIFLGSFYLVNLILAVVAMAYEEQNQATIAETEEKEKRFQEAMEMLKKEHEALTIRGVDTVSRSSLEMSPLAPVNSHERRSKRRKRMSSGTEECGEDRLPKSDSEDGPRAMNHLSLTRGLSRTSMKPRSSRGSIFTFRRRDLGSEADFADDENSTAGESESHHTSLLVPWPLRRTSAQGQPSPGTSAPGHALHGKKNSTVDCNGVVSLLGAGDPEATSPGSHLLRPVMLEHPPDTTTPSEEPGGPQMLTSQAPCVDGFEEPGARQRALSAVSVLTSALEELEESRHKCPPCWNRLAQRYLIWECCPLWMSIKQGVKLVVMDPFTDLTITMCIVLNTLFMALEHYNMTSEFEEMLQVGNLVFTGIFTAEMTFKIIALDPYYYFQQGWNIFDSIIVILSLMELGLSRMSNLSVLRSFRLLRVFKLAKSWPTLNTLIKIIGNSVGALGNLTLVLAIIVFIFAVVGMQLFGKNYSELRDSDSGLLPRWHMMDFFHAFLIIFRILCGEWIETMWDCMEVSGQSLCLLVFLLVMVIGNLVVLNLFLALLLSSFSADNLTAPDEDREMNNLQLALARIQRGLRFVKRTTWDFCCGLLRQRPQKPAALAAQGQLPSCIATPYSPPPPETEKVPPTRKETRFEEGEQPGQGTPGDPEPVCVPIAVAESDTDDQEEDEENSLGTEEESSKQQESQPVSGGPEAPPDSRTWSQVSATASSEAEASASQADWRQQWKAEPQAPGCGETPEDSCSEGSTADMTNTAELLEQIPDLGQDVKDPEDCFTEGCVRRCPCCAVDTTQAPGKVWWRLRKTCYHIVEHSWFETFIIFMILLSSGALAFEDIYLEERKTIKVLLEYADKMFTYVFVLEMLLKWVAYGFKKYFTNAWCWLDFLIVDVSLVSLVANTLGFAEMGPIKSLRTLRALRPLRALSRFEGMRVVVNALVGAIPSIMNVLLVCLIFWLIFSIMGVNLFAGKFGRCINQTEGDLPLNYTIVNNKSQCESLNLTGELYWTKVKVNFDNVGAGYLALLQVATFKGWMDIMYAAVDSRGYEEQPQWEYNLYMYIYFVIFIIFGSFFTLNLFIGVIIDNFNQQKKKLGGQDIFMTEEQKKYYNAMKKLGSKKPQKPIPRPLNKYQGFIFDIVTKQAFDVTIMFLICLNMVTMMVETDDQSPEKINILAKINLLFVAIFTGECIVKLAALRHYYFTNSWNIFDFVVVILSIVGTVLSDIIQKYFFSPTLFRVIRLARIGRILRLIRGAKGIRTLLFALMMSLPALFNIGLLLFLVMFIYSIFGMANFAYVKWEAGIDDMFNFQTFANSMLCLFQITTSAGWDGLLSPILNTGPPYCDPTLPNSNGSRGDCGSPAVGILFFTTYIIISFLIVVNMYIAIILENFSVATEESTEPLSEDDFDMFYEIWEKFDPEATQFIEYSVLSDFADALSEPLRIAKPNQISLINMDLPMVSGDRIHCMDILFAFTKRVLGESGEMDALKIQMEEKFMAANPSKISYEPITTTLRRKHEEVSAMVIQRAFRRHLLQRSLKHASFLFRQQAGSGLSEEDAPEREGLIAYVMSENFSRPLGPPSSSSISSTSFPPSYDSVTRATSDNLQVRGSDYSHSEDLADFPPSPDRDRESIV

Consider `CC[C@H](C)[C@@H]1NC(=O)[C@@H]2CSSC[C@@H]3NC(=O)[C@H](C(C)C)NC(=O)[C@H](CC(C)C)NC(=O)[C@H](CC(N)=O)NC(=O)[C@@H]4CCCN4C(=O)[C@H](CCCNC(=N)N)NC(=O)[C@H](CSSC[C@H](NC(=O)[C@@H](N)CC(=O)O)C(=O)N[C@@H](CC(C)C)C(=O)NCC(=O)N[C@@H](CCc4ccccc4)C(=O)N[C@@H](CCSC)C(=O)N[C@@H](CCCNC(=N)N)C(=O)N[C@@H](CCCCN)C(=O)N2)NC(=O)[C@H](CSSC[C@@H](C(=O)N[C@@H](CCCCN)C(=O)N[C@@H](Cc2ccc(O)cc2)C(=O)N[C@H](C(=O)N[C@@H](Cc2ccccc2)C(N)=O)C(C)C)NC(=O)[C@H](Cc2c[nH]c4ccccc24)NC(=O)[C@H](CCCCN)NC(=O)[C@H](Cc2c[nH]cn2)NC(=O)[C@H]([C@@H](C)O)NC(=O)[C@H](CCCNC(=N)N)NC(=O)[C@H](CO)NC3=O)NC(=O)[C@H](CCCCN)NC(=O)[C@H](CC(=O)O)NC(=O)[C@H](CC(N)=O)NC(=O)[C@H](CC(=O)O)NC(=O)[C@@H]2CCCN2C1=O` [compound 690], for which the values for the IC50 in experiment [1], in experiment [2] (IWQ Use Nav1.5) and in experiment [3] were 0.09 µM, above 5 µM and 0.18 µM, respectively.

In the case of `CC[C@H](C)[C@@H]1NC(=O)[C@@H]2CSSC[C@@H]3NC(=O)[C@H](C(C)C)NC(=O)[C@H](CC(C)C)NC(=O)[C@H](CC(N)=O)NC(=O)[C@@H]4CCCN4C(=O)[C@H](CCCNC(=N)N)NC(=O)[C@H](CSSC[C@H](NC(=O)[C@@H](N)CC(=O)O)C(=O)N[C@@H](CC(C)C)C(=O)NCC(=O)N[C@@H](C)C(=O)N[C@@H](CCSC)C(=O)N[C@@H](CCCNC(=N)N)C(=O)N[C@@H](CCCCN)C(=O)N2)NC(=O)[C@H](CSSC[C@@H](C(=O)N[C@@H](CCCCN)C(=O)N[C@@H](Cc2cn(C)c4ccccc24)C(=O)N[C@H](C(=O)N[C@@H](Cc2ccccc2)C(N)=O)C(C)C)NC(=O)[C@H](Cc2c[nH]c4ccccc24)NC(=O)[C@H](CCCCN)NC(=O)[C@H](Cc2c[nH]cn2)NC(=O)[C@H]([C@@H](C)O)NC(=O)[C@H](CCCNC(=N)N)NC(=O)[C@H](CO)NC3=O)NC(=O)[C@H](CCCCN)NC(=O)[C@H](CC(=O)O)NC(=O)[C@H](CC(N)=O)NC(=O)[C@H](CC(=O)O)NC(=O)[C@@H]2CCCN2C1=O` [compound 692] (H-DCLGAMRKCIPDNDKCCRPNLVCSRTHKWCK[Trp(1-Me)]VF-NH2; disulfide 2-17, 9-23, 16-30), the IC50 was 0.18 µM in experiment [1], above 5 µM in experiment [2] (setting [4]) and 0.63 µM in experiment [3].

Regarding `CC[C@H](C)[C@@H]1NC(=O)[C@@H]2CSSC[C@@H]3NC(=O)[C@H](C(C)C)NC(=O)[C@H](CC(C)C)NC(=O)[C@H](CC(N)=O)NC(=O)[C@@H]4CCCN4C(=O)[C@H](CCCNC(=N)N)NC(=O)[C@H](CSSC[C@H](NC(=O)[C@@H](N)CC(=O)O)C(=O)N[C@@H](CC(C)C)C(=O)NCC(=O)N[C@@H](CCSC)C(=O)N[C@@H](CCSC)C(=O)N[C@@H](CCCNC(=N)N)C(=O)N[C@@H](CCCCN)C(=O)N2)NC(=O)[C@H](CSSC[C@@H](C(=O)N[C@@H](CCCCN)C(=O)N[C@@H](Cc2cn(C)c4ccccc24)C(=O)N[C@H](C(=O)N[C@@H](Cc2ccccc2)C(N)=O)C(C)C)NC(=O)[C@H](Cc2c[nH]c4ccccc24)NC(=O)[C@H](CCCCN)NC(=O)[C@H](Cc2c[nH]cn2)NC(=O)[C@H]([C@@H](C)O)NC(=O)[C@H](CCCNC(=N)N)NC(=O)[C@H](CO)NC3=O)NC(=O)[C@H](CCCCN)NC(=O)[C@H](CC(=O)O)NC(=O)[C@H](CC(N)=O)NC(=O)[C@H](CC(=O)O)NC(=O)[C@@H]2CCCN2C1=O` [compound 693] (H-DCLGMMRKCIPDNDKCCRPNLVCSRTHKWCK[Trp(1-Me)]VF-NH2; disulfide 2-17, 9-23, 16-30), the IC50 in experiment [1] was 0.046 µM; in experiment [2] (setting [4]), above 5 µM; in experiment [3], 0.1 µM.

On to `CC[C@H](C)[C@@H]1NC(=O)[C@@H]2CSSC[C@@H]3NC(=O)[C@H](C(C)C)NC(=O)[C@H](CC(C)C)NC(=O)[C@H](CC(N)=O)NC(=O)[C@@H]4CCCN4C(=O)[C@H](CCCNC(=N)N)NC(=O)[C@H](CSSC[C@H](NC(=O)[C@@H](N)CC(=O)O)C(=O)N[C@@H](CC(C)C)C(=O)N[C@@H](CCCNC(=N)N)C(=O)N[C@@H](CCSC)C(=O)N[C@@H](CCSC)C(=O)N[C@@H](CCCNC(=N)N)C(=O)N[C@@H](CCCCN)C(=O)N2)NC(=O)[C@H](CSSC[C@@H](C(=O)N[C@@H](CCCCN)C(=O)N[C@@H](Cc2ccc(O)cc2)C(=O)N[C@H](C(=O)N[C@@H](Cc2ccccc2)C(N)=O)C(C)C)NC(=O)[C@H](Cc2c[nH]c4ccccc24)NC(=O)[C@H](CCCCN)NC(=O)[C@H](Cc2c[nH]cn2)NC(=O)[C@H]([C@@H](C)O)NC(=O)[C@H](CCCNC(=N)N)NC(=O)[C@H](CO)NC3=O)NC(=O)[C@H](CCCCN)NC(=O)[C@H](CC(=O)O)NC(=O)[C@H](CC(N)=O)NC(=O)[C@H](CC(=O)O)NC(=O)[C@@H]2CCCN2C1=O` [compound 694] (H-DCLRMMRKCIPDNDKCCRPNLVCSRTHKWCKYVF-NH2; disulfide 2-17, 9-23, 16-30), for which the results for the IC50 in experiment [1], in experiment [2] (setting [4]) and in experiment [3] were 0.08 µM, above 5 µM and 0.29 µM, respectively.

Turning to `CC[C@H](C)[C@@H]1NC(=O)[C@@H]2CSSC[C@@H]3NC(=O)[C@H](C(C)C)NC(=O)[C@H](CC(C)C)NC(=O)[C@H](CC(N)=O)NC(=O)[C@H](CO)NC(=O)[C@H](CCCNC(=N)N)NC(=O)[C@H](CSSC[C@H](NC(=O)[C@@H](N)CC(=O)O)C(=O)N[C@@H](CC(C)C)C(=O)NCC(=O)N[C@@H](Cc4ccccc4)C(=O)N[C@@H](CCSC)C(=O)N[C@@H](CCCNC(=N)N)C(=O)N[C@@H](CCCCN)C(=O)N2)NC(=O)[C@H](CSSC[C@@H](C(=O)N[C@@H](CCCCN)C(=O)N[C@@H](Cc2cn(C)c4ccccc24)C(=O)N[C@H](C(=O)N[C@@H](Cc2ccccc2)C(N)=O)C(C)C)NC(=O)[C@H](Cc2c[nH]c4ccccc24)NC(=O)[C@H](CCCCN)NC(=O)[C@H](Cc2c[nH]cn2)NC(=O)[C@H]([C@@H](C)O)NC(=O)[C@H](CCCNC(=N)N)NC(=O)[C@H](CO)NC3=O)NC(=O)[C@H](CCCCN)NC(=O)[C@H](CC(=O)O)NC(=O)[C@H](CC(N)=O)NC(=O)[C@H](CC(=O)O)NC(=O)[C@@H]2CCCN2C1=O` [compound 695] (H-DCLGFMRKCIPDNDKCCRSNLVCSRTHKWCK[Trp(1-Me)]VF-NH2; disulfide 2-17, 9-23, 16-30), the figures for the IC50 in experiment [1], in experiment [2] (setting [4]) and in experiment [3] were 0.03 µM, above 5 µM and 0.03 µM, respectively.

As to `CC[C@H](C)[C@@H]1NC(=O)[C@@H]2CSSC[C@@H]3NC(=O)[C@H](C(C)C)NC(=O)[C@H](CC(C)C)NC(=O)[C@H](CC(N)=O)NC(=O)[C@@H]4CCCN4C(=O)[C@H](CCCNC(=N)N)NC(=O)[C@H](CSSC[C@H](NC(=O)[C@@H](N)CC(=O)O)C(=O)N[C@@H](CC(C)C)C(=O)NCC(=O)N[C@@H](C)C(=O)NCC(=O)N[C@@H](CCCNC(=N)N)C(=O)N[C@@H](CCCCN)C(=O)N2)NC(=O)[C@H](CSSC[C@@H](C(=O)N[C@@H](CCCCN)C(=O)N[C@@H](Cc2ccc(O)cc2)C(=O)N[C@H](C(=O)N[C@@H](Cc2ccccc2)C(N)=O)C(C)C)NC(=O)[C@H](Cc2c[nH]c4ccccc24)NC(=O)[C@H](CCCCN)NC(=O)[C@H](Cc2c[nH]cn2)NC(=O)[C@H]([C@@H](C)O)NC(=O)[C@H](CCCNC(=N)N)NC(=O)[C@H](CO)NC3=O)NC(=O)[C@H](CCCCN)NC(=O)[C@H](CC(=O)O)NC(=O)[C@H](CC(N)=O)NC(=O)[C@H](CC(=O)O)NC(=O)[C@@H]2CCCN2C1=O` [compound 697] (H-DCLGAGRKCIPDNDKCCRPNLVCSRTHKWCKYVF-NH2; disulfide 2-17, 9-23, 16-30), the IC50 in experiment [1] is 8.1 µM; in experiment [2] (setting [4]), above 5 µM; in experiment [3] it was 4.4 µM.

Consider `CC[C@H](C)[C@@H]1NC(=O)[C@@H]2CSSC[C@@H]3NC(=O)[C@H](C(C)C)NC(=O)[C@H](CC(C)C)NC(=O)[C@H](CC(N)=O)NC(=O)[C@@H]4CCCN4C(=O)[C@H](CCCNC(=N)N)NC(=O)[C@H](CSSC[C@H](NC(=O)[C@@H](N)CC(=O)O)C(=O)N[C@@H](CC(C)C)C(=O)NCC(=O)N[C@@H](C)C(=O)N[C@@H](Cc4ccc(O)cc4)C(=O)N[C@@H](CCCNC(=N)N)C(=O)N[C@@H](CCCCN)C(=O)N2)NC(=O)[C@H](CSSC[C@@H](C(=O)N[C@@H](CCCCN)C(=O)N[C@@H](Cc2ccc(O)cc2)C(=O)N[C@H](C(=O)N[C@@H](Cc2ccccc2)C(N)=O)C(C)C)NC(=O)[C@H](Cc2c[nH]c4ccccc24)NC(=O)[C@H](CCCCN)NC(=O)[C@H](Cc2c[nH]cn2)NC(=O)[C@H]([C@@H](C)O)NC(=O)[C@H](CCCNC(=N)N)NC(=O)[C@H](CO)NC3=O)NC(=O)[C@H](CCCCN)NC(=O)[C@H](CC(=O)O)NC(=O)[C@H](CC(N)=O)NC(=O)[C@H](CC(=O)O)NC(=O)[C@@H]2CCCN2C1=O` [compound 698] (H-DCLGAYRKCIPDNDKCCRPNLVCSRTHKWCKYVF-NH2; disulfide 2-17, 9-23, 16-30), for which the IC50 was 4.4 µM in experiment [1], above 5 µM in experiment [2] (setting [4]) and above 5 µM in experiment [3].

Regarding `CC[C@H](C)[C@@H]1NC(=O)[C@@H]2CSSC[C@@H]3NC(=O)[C@H](C(C)C)NC(=O)[C@H](CC(C)C)NC(=O)[C@H](CC(N)=O)NC(=O)[C@@H]4CCCN4C(=O)[C@H](CCCNC(=N)N)NC(=O)[C@H](CSSC[C@H](NC(=O)[C@@H](N)CC(=O)O)C(=O)N[C@@H](CC(C)C)C(=O)NCC(=O)N[C@@H](C)C(=O)N[C@@H](Cc4cn(C)c5ccccc45)C(=O)N[C@@H](CCCNC(=N)N)C(=O)N[C@@H](CCCCN)C(=O)N2)NC(=O)[C@H](CSSC[C@@H](C(=O)N[C@@H](CCCCN)C(=O)N[C@@H](Cc2ccc(O)cc2)C(=O)N[C@H](C(=O)N[C@@H](Cc2ccccc2)C(N)=O)C(C)C)NC(=O)[C@H](Cc2c[nH]c4ccccc24)NC(=O)[C@H](CCCCN)NC(=O)[C@H](Cc2c[nH]cn2)NC(=O)[C@H]([C@@H](C)O)NC(=O)[C@H](CCCNC(=N)N)NC(=O)[C@H](CO)NC3=O)NC(=O)[C@H](CCCCN)NC(=O)[C@H](CC(=O)O)NC(=O)[C@H](CC(N)=O)NC(=O)[C@H](CC(=O)O)NC(=O)[C@@H]2CCCN2C1=O` [compound 699], the IC50 was 0.34 µM in experiment [1], above 5 µM in experiment [2] (setting [4]) and 0.32 µM in experiment [3].
